Laboratory results published in US20150105252A1, “SUBSTITUTED PYRAZOLES AS HERBICIDES” (E I DU PONT DE NEMOURS AND COMPANY, priority 2013, published 2015).

Key:
kochia = assay: Test C postemergence; format: in vivo, Kochia scoparia
Procedure, shortened: (§1)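 In this greenhouse assay, seeded soil (loam plus sand) or emerged seedlings in peat-vermiculite medium were treated with formulated compound. Roughly two weeks later (13–15 days), each species was scored visually relative to controls, from 0 for no effect to 100 for complete control.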

foxtail, giant = assay: Test C postemergence; format: in vivo, Setaria faberii
Procedure, shortened: as §1

ryegrass, Italian = assay: Test C postemergence; format: in vivo, Lolium multiflorum
Procedure, shortened: as §1

waterhemp = assay: Test C postemergence; format: in vivo, Amaranthus rudis
Procedure, shortened: as §1

velvetleaf = assay: Test C postemergence; format: in vivo, Abutilon theophrasti
Procedure, shortened: as §1

oat, wild = assay: Test C postemergence; format: in vivo, Avena fatua
Procedure, shortened: as §1

soybean = assay: Test C postemergence; format: in vivo, Glycine max
Procedure, shortened: as §1

lambsquarters [1] = assay: Test C postemergence; format: in vivo, Chenopodium album
Procedure, shortened: as §1

barnyardgrass = assay: Test C postemergence; format: in vivo, Echinochloa crus-galli
Procedure, shortened: as §1

lambsquarters [2] = assay: Test C preemergence; format: in vivo, Chenopodium album; settings: for Lambsquarters plant response rating: scale 0 to 100 (0 no effect, 100 complete control)
Procedure, shortened: as §1

galium = assay: Test C postemergence; format: in vivo, Galium aparine
Procedure, shortened: as §1

pigweed = assay: Test C postemergence; format: in vivo, Amaranthus retroflexus
Procedure, shortened: as §1

nutsedge, yellow = assay: Test C postemergence; format: in vivo, Cyperus esculentus
Procedure, shortened: as §1

morningglory = assay: Test C postemergence; format: in vivo, Ipomoea coccinea
Procedure, shortened: as §1

chickweed = assay: Test C postemergence; format: in vivo, Stellaria media
Procedure, shortened: as §1

ragweed = assay: Test C postemergence; format: in vivo, Ambrosia elation
Procedure, shortened: as §1

[3] = Postemergence, 31 g ai/ha, visually evaluated after 13 to 15 days
[4] = postemergence, 62 g ai/ha, scale 0 to 100
[5] = postemergence, 250 g ai/ha, scale 0 to 100 (0 no effect, 100 complete control)
[6] = postemergence, 125 g ai/ha, scale 0 to 100, 0 no effect, 100 complete control

CCOc1cc(C(=O)NC2CC2)nn1Cc1ccnc(OC(F)F)c1 [Compound 133]
Plant response rating (scale of 0 to 100 where 0 is no effect and 100 is complete control), Kochia (kochia; [3]): 85 | Kochia plant response rating (kochia; [4]): 90 | Plant response rating, Kochia (kochia; [5]): 90 | Plant response rating, Kochia (kochia; [6]): 90 | Plant response rating (scale of 0 to 100 where 0 is no effect and 100 is complete control), Foxtail, Giant (foxtail, giant; [3]): 35 | Foxtail, Giant plant response rating (foxtail, giant; [4]): 40 | Plant response rating, Foxtail, Giant (foxtail, giant; [5]): 80 | Plant response rating, Foxtail, Giant (foxtail, giant; [6]): 50 | Plant response rating (scale of 0 to 100 where 0 is no effect and 100 is complete control), Ryegrass, Italian (ryegrass, Italian; [3]): 5 | Ryegrass, Italian plant response rating (ryegrass, Italian; [4]): 5 | Plant response rating, Ryegrass, Italian (ryegrass, Italian; [5]): 10 | Plant response rating, Ryegrass, Italian (ryegrass, Italian; [6]): 5 | Plant response rating (scale of 0 to 100 where 0 is no effect and 100 is complete control), Waterhemp (waterhemp; [3]): 60 | Waterhemp plant response rating (waterhemp; [4]): 60 | Plant response rating, Waterhemp (waterhemp; [5]): 95 | Plant response rating, Waterhemp (waterhemp; [6]): 75 | Plant response rating (scale of 0 to 100 where 0 is no effect and 100 is complete control), Velvetleaf (velvetleaf; [3]): 25 | Velvetleaf plant response rating (velvetleaf; [4]): 45 | Plant response rating, Velvetleaf (velvetleaf; [5]): 70 | Plant response rating, Velvetleaf (velvetleaf; [6]): 35 | Plant response rating (scale of 0 to 100 where 0 is no effect and 100 is complete control), Oat, Wild (oat, wild; [3]): 5 | Oat, Wild plant response rating (oat, wild; [4]): 5 | Plant response rating, Oat, Wild (oat, wild; [5]): 35 | Plant response rating, Oat, Wild (oat, wild; [6]): 15 | Plant response rating (scale of 0 to 100 where 0 is no effect and 100 is complete control), Soybean (soybean; [3]): 85 | Soybean plant response rating (soybean; [4]): 75 | Plant response rating, Soybean (soybean; [5]): 95 | Plant response rating, Soybean (soybean; [6]): 95 | Plant response rating (scale of 0 to 100 where 0 is no effect and 100 is complete control), Lambsquarters (lambsquarters [1]; [3]): 50 | Lambsquarters plant response rating (lambsquarters [1]; [4]): 55 | Plant response rating, Lambsquarters (lambsquarters [1]; [5]): 90 | Plant response rating, Lambsquarters (lambsquarters [1]; [6]): 90 | Plant response rating (scale of 0 to 100 where 0 is no effect and 100 is complete control), Barnyardgrass (barnyardgrass; [3]): 5 | Barnyardgrass plant response rating (barnyardgrass; [4]): 5 | Plant response rating, Barnyardgrass (barnyardgrass; [5]): 15 | Plant response rating, Barnyardgrass (barnyardgrass; [6]): 5 | Plant response rating (scale of 0 to 100), Lambsquarters (lambsquarters [2]; Preemergence, 250 g ai/ha): 100 | Lambsquarters plant response rating (lambsquarters [2]; preemergence, 31 g ai/ha, visual rating, 13 to 15 days): 75 | Lambsquarters plant response rating (lambsquarters [2]; preemergence, 62 g ai/ha, 13 to 15 days): 100 | Plant response rating, Lambsquarters (lambsquarters [2]; preemergence, 125 g ai/ha, 13 to 15 days, scale 0 to 100, 0 = no effect, 100 = complete control): 100 | Plant response rating (scale of 0 to 100 where 0 is no effect and 100 is complete control), Galium (galium; [3]): 70 | Galium plant response rating (galium; [4]): 70 | Plant response rating, Galium (galium; [5]): 80 | Plant response rating, Galium (galium; [6]): 70 | Plant response rating (scale of 0 to 100 where 0 is no effect and 100 is complete control), Pigweed (pigweed; [3]): 50 | Pigweed plant response rating (pigweed; [4]): 60 | Plant response rating, Pigweed (pigweed; [5]): 90 | Plant response rating, Pigweed (pigweed; [6]): 80 | Plant response rating (scale of 0 to 100 where 0 is no effect and 100 is complete control), Nutsedge, Yellow (nutsedge, yellow; [3]): 5 | Nutsedge, Yellow plant response rating (nutsedge, yellow; [4]): 5 | Plant response rating, Nutsedge, Yellow (nutsedge, yellow; [5]): 15 | Plant response rating, Nutsedge, Yellow (nutsedge, yellow; [6]): 5 | Plant response rating (scale of 0 to 100 where 0 is no effect and 100 is complete control), Morningglory (morningglory; [3]): 75 | Morningglory plant response rating (morningglory; [4]): 90 | Plant response rating, Morningglory (morningglory; [5]): 100 | Plant response rating, Morningglory (morningglory; [6]): 90 | Plant response rating (scale of 0 to 100 where 0 is no effect and 100 is complete control), Chickweed (chickweed; [3]): 50 | Chickweed plant response rating (chickweed; [4]): 60 | Plant response rating, Chickweed (chickweed; [5]): 85 | Plant response rating, Chickweed (chickweed; [6]): 70 | Plant response rating (scale of 0 to 100 where 0 is no effect and 100 is complete control), Ragweed (ragweed; [3]): 25 | Ragweed plant response rating (ragweed; [4]): 25 | Plant response rating, Ragweed (ragweed; [5]): 85 | Plant response rating, Ragweed (ragweed; [6]): 75
